{
  "source": "patent US11673853B2",
  "about": "“Small molecule AMPK activators” (University of Pittsburgh—Of the Commonwealth System of …, priority 2016, dated 2023)",
  "tested_on": "Diet-induced obese mice",
  "test": "Hyperinsulinemic euglycemic clamp study",
  "type": "in vivo",
  "conditions": "BC1618 20 mg/kg twice",
  "experimental": "FIG. 30. Diet-induced obese mice were dosed 1× with vehicle or BC1618 (20 mg/kg) prior to overnight fast, followed by a 1× (20 mg/kg) morning dose prior to hyperinsulinemic euglycemic clamp. Body weight measurements are shown.\nFIG. 31. From the same study as in FIG. 30, fasting plasma glucose and glucose infusion rate values are shown.\nFIG. 32. From the same study as in FIG. 30, glucose infusion rate values are shown.\nDiet-induced obese mice were dosed 1× with vehicle or BC1618 (20 mg/kg) prior to overnight fast, followed by a 1× (20 mg/kg) morning dose prior to hyperinsulinemic euglycemic clamp. […] Plasma glucose levels were matched during the clamp (FIG. 31, upper portion). The glucose infusion rate (GIR) required to maintain euglycemia in the 1618 treated mice was approximately 2-fold greater than VEH treated mice (FIG. 31, lower portion and average over last 40 min in FIG. 32, P<0.001), indicating improved whole-body insulin sensitivity.",
  "data": [
    {"molecule": "OC(COc1ccc(C(F)(F)F)cc1)CN(Cc1ccccc1)Cc1ccccc1", "note": "(stereo not drawn) [Compound 23]", "values": [
      {"measurement": "body weight prior to clamp", "result": "no difference in body weight"},
      {"measurement": "glucose infusion rate (GIR) required to maintain euglycemia, relative to VEH treated mice", "setting": "P<0.001", "result": "approximately 2 fold"},
      {"measurement": "fasting plasma glucose", "setting": "before clamp, vehicle 111±3, P=0.12", "result": "100 ± 6", "unit": "mg/dL"}
    ]}
  ]
}
